According to PubChem BioAssay AID449762 (Southern Research Specialized Biocontainment Screening …, 2010):
Results filed as inconclusive are left out.

System: M. tuberculosis H37Rv growth inhibition, 7H9 media
Test: M. tuberculosis growth inhibition, HTS (AID 449762);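 note: bacterial growth assessed after seven days of incubation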
Conditions: for IC90: measured here: IC90 growth inhibition

## O=[N+]([O-])c1ccc(-n2cnc3ccccc32)c([N+](=O)[O-])c1
  IC50: 1.61 µM
  IC90: 5.96 µM

## c1ccc(CN2CCN(CCCNc3ccc4nnc(-c5ccccc5)n4n3)CC2)cc1
  IC50: 19.4 µM
  IC90: 24.7 µM

## CCc1c(C2(O)CCCCC2)[nH]c2ccc(C(F)(F)F)cc12
  IC50: 28.4 µM
  IC90: > 50 µM

## Cc1cc(/C=C2\SC(=Nc3ccc(F)cc3)NC2=O)c(C)n1-c1ccc(S(N)(=O)=O)cc1
  IC50: 22.4 µM
  IC90: 25.5 µM

## O=C(CCC(=O)OCc1ccc(C(=O)Oc2ccc(Cl)cc2)cc1)Nc1ccccc1
  IC50: 16.4 µM
  IC90: 44 µM

## CC(=O)Nc1ccc(S(=O)(=O)Nc2ccc(N3CCCCC3)cc2)cc1
  IC50: 12.4 µM
  IC90: 13.8 µM

## COc1ccccc1C1=NOC(COC(=O)c2ccc([N+](=O)[O-])cc2)C1 (stereo not drawn)
  IC50: 34.4 µM
  IC90: > 100 µM

## O=[N+]([O-])c1ccc(S(=O)(=O)c2ccccc2)nc1
  IC50: 1.01 µM
  IC90: 2.08 µM

## O=C(/C=C/c1cn(-c2ccccc2)nc1-c1cccnc1)c1ccco1
  IC50: 14.8 µM
  IC90: 46.6 µM

## COc1ccc(C(=O)C[n+]2ccc3c(c2)nc(-c2cc(OC)c(OC)cc2OC)n3C)cc1
  IC50: 10.5 µM
  IC90: 13.4 µM

## CC1CCN(C(=S)NC(=O)c2cccs2)CC1
  IC50: 12.8 µM
  IC90: 29 µM

## CCOc1ccc(N2CC(=O)Nc3ccccc3NCC2=O)cc1
  IC50: 52.7 µM
  IC90: 78.2 µM

## CC(/C=C/c1ccccc1)=N\NC(N)=S
  IC50: 3.84 µM
  IC90: 9.07 µM

## COC(=O)c1ccc(-n2cnc3ccccc32)nc1
  IC50: 13.9 µM
  IC90: 45.1 µM

## CCOC(=O)c1ccc2c(c1)C(=O)N(C1CCCCC1)C2=O
  IC50: 98.3 µM
  IC90: > 100 µM

## CCn1c(=O)c(CCC(=O)N2CCN(c3ccccn3)CC2)c(C)c2c(C)nn(-c3cccc(C)c3)c21
  IC50: 19.5 µM
  IC90: 27.5 µM

## O=C(C1CC1)N1CCCC(c2ccc(Cl)cc2)=N1
  IC50: 33.1 µM
  IC90: 50.2 µM

## O=c1/c(=C\c2ccc(O)cc2)sc2n1C(c1ccccc1)C(c1ccccc1)=NN=2 (stereo not drawn)
  IC50: 55.7 µM
  IC90: 87.2 µM

## CCn1c(C)c(C)c2cc(C(=O)Nc3cccc(Cl)c3)ccc21
  IC50: 35 µM
  IC90: > 100 µM

## S=C(NN=C1CCN(Cc2ccccc2)CC1)NC1CCCCC1
  IC50: 16.7 µM
  IC90: 25.3 µM

## Cc1cc(N2CCN(c3ccc(C(F)(F)F)cc3[N+](=O)[O-])CC2)c2ccccc2n1
  IC50: 21.4 µM
  IC90: 23.7 µM

## COCc1nnc(NC(=O)C2CC(=O)N(c3ccc(C)c(Cl)c3)C2)s1 (stereo not drawn)
  IC50: 51.1 µM
  IC90: > 100 µM

## COc1ccc(C=C2C=C(C(C)(C)C)C(=O)C(C(C)(C)C)=C2)cc1OC
  IC50: 2.94 µM
  IC90: 5.15 µM

## O=c1cc(O)c2sc3nc(-c4cccnc4)cc(C(F)(F)F)c3c2[nH]1
  IC50: 15.6 µM
  IC90: 35.6 µM

## Cc1ccc(S(=O)(=O)NCc2ccc(C(=O)NCCCN3CCC(Cc4ccccc4)CC3)cc2)cc1
  IC50: 79.8 µM
  IC90: > 100 µM

## O=C(Cc1ccc(Nc2nc3ccc(Br)cc3[nH]2)cc1)NCCc1cccs1
  IC50: 23.5 µM
  IC90: 31.2 µM

## CCCCC(O)(CCCC)C(=O)NN(C(=O)CCl)c1ccccc1
  IC50: 3.9 µM
  IC90: 10.5 µM

## COc1cc(/C=C2\C(=O)N(c3ccc(S(N)(=O)=O)cc3)N=C2C)ccc1OC(=O)c1ccco1
  IC50: 16.2 µM
  IC90: 22.6 µM

## Cc1ccc(NS(=O)(=O)c2ccc(NC(=O)CN(c3cc([N+](=O)[O-])ccc3C)S(C)(=O)=O)cc2)c(C)c1
  IC50: 41.3 µM
  IC90: > 100 µM

## O=C1N[C@@H](Cc2ccccc2)C(=O)N2[C@H]3Nc4ccccc4[C@@]3([C@]34C[C@H]5C(=O)N[C@@H](Cc6ccccc6)C(=O)N5[C@H]3Nc3ccccc34)C[C@@H]12
  IC50: 79.1 µM
  IC90: > 100 µM

## Nc1ccccc1C#CC(=O)c1ccccc1
  IC50: 1.11 µM
  IC90: 43.1 µM

## COc1cc(NC(C)CCCN)c2ncccc2c1 (stereo not drawn)
  IC50: 9.14 µM
  IC90: 13.9 µM

## O=C(/C=C/c1cc(Br)ccc1O)c1ccco1
  IC50: 7.96 µM
  IC90: 13.4 µM

## CSCCCNC(=S)N1CCN(c2ccc(C(C)=O)cc2)CC1
  IC50: 24.8 µM
  IC90: 44.1 µM

## CCOC(=O)CSc1nnc(-c2ccc(S(=O)(=O)NCc3cccs3)cc2)o1
  IC50: 2.55 µM
  IC90: 4.55 µM

## CC1=NN(C(N)=S)C(=O)C1N=Nc1ccc(C)c(Br)c1 (stereo not drawn)
  IC50: 11.5 µM
  IC90: 19.1 µM

## Nc1ccc(S(=O)(=O)Nc2cnc3ccccc3n2)cc1
  IC50: 26.4 µM
  IC90: 52 µM

## CCOc1ccc(NC(=S)Nc2ccc(C)c([N+](=O)[O-])c2)cc1
  IC50: 45 µM
  IC90: > 100 µM

## CC(Oc1cc2oc(=O)c3c(c2cc1Cl)CCCC3)C(=O)NCc1ccccn1 (stereo not drawn)
  IC50: 7.47 µM
  IC90: > 100 µM

## C/C(=N\NC(=O)c1cc2c(s1)CCC(C)C2)c1ccncc1 (stereo not drawn)
  IC90: > 100 µM

## CCC(C)NC(=O)c1cn(CC)c2cc(N3CCN(C(=O)c4ccco4)CC3)c(F)cc2c1=O (stereo not drawn)
  IC50: 9.33 µM
  IC90: 30.9 µM

## Cc1nc2sccn2c1-c1nc(-c2cc3ccccc3o2)cs1
  IC50: 52.5 µM
  IC90: 90.7 µM

## CC(C)NC(=O)c1sc(=S)n2c1[nH]c(=O)c1ccc(C(=O)NCCc3ccc(Cl)cc3)cc12
  IC50: 0.3 µM
  IC90: 0.49 µM

## Cc1nn(-c2nc3ccccc3[nH]2)c(N)c1-c1ccc(Cl)cc1
  IC50: 0.21 µM
  IC90: 2.6 µM

## COc1ccc(CCNc2cc(-c3ccccc3)nc3ncnn23)cc1
  IC50: 4.49 µM
  IC90: > 100 µM

## O=C1CCCC2=C1C1c3ccccc3C(=O)N1c1ccc(C(=O)c3ccccc3)cc1N2 (stereo not drawn)
  IC50: 16 µM
  IC90: 21.9 µM

## CSC(=S)NCc1cccnc1
  IC50: 11.5 µM
  IC90: 34.7 µM

## CCN(CC)CCN(C(=O)c1ccc(S(=O)(=O)N2CCCC2)cc1)c1nc2cc(C)cc(C)c2s1
  IC50: 10.1 µM
  IC90: 13.2 µM

## C=CCSc1n[nH]c(-c2ccc(OCCCC)cc2)n1
  IC50: 15.8 µM
  IC90: 39.2 µM

## Cc1[nH]n(-c2ccccc2)c(=S)c1C=NCCCN=Cc1c(C)[nH]n(-c2ccccc2)c1=S
  IC90: > 100 µM

## CC(C)Nc1nc(NC(C)C)nc(N(C)N)n1
  IC50: 5.75 µM
  IC90: 7.57 µM

## CC1(C)CC(=O)C2=C(C1)OC(N)=C([N+](=O)[O-])C2c1ccc(C#N)s1 (stereo not drawn)
  IC50: 62.2 µM
  IC90: > 100 µM

## CN(C)N=Nc1nc[nH]c1C(N)=O
  IC50: 4.86 µM
  IC90: 6.76 µM

## CC(C)c1nc2scc(-c3ccc(Cl)cc3)c2c(=O)n1N
  IC50: 81.8 µM
  IC90: > 100 µM

## Cc1ccc(/C=C(\NC(=O)c2ccc(C)cc2)c2nc(=S)[nH][nH]2)cc1
  IC50: 39.5 µM
  IC90: 48.9 µM

## Cc1ccc(S(=O)(=O)Nc2cccc3ncccc23)s1
  IC50: < 0.2 µM
  IC90: 3.93 µM

## Cc1cccc(-c2ncc(CN3CCC(CO)(CCCc4ccccc4)CC3)cn2)c1
  IC50: 44.1 µM
  IC90: 73.5 µM

## CCOC(=O)c1cc(-c2csc(Nc3c(C)cc(C)cc3C)n2)on1
  IC50: 1.07 µM
  IC90: 1.76 µM

## CS/C(Nc1cc(Cl)ccc1Cl)=C(/C#N)C(=O)c1ccco1
  IC50: 3.6 µM
  IC90: 40.2 µM

## NC(N)=N/N=C/c1ccc(N(c2ccccc2)c2ccccc2)cc1
  IC50: 10.9 µM
  IC90: 13.7 µM

## CC(=O)O[C@H]1C[C@@]2(C)[C@@H](C[C@@H](O)[C@H]3[C@@]4(C)CC[C@@H](O)[C@@H](C)[C@@H]4CC[C@@]32C)/C1=C(\CCC=C(C)C)C(=O)O
  IC50: 1.6 µM
  IC90: 4.42 µM

## CC(C)(C)Nc1nc(NC(C)(C)C)nc(-n2ccnc2)n1
  IC50: 14.6 µM
  IC90: > 100 µM

## Cn1c(/C=N/Nc2nc3ccccc3[nH]2)nc2ccccc21
  IC50: 40.1 µM
  IC90: 61.4 µM

## COc1cccc2c1C(CO)N1C(C#N)C3CC(C(=O)O)C(C1C2)N3C (stereo not drawn)
  IC50: 2.69 µM
  IC90: 2.98 µM

## O=C(CCn1c(=O)c2cccn2c2cccnc21)N1CCN(c2cccc(Cl)c2)CC1
  IC50: 30.6 µM
  IC90: 41.8 µM

## COc1ccc(C(CC(=O)c2ccccc2)S(=O)(=O)c2ccc(C)cc2)cc1 (stereo not drawn)
  IC50: 20.2 µM
  IC90: 29.4 µM

## Cc1ccc(NC(=O)CCl)cc1S(=O)(=O)N1CCCCCC1
  IC50: 2.6 µM
  IC90: 5.03 µM

## C[C@]12C=CC(=O)C=C1CC[C@@H]1C2=CC[C@]2(C)[C@@H](C(=O)CN3CCN(c4cc(N5CCCC5)nc(N5CCCC5)n4)CC3)CC[C@@H]12
  IC50: 22.5 µM
  IC90: 30.4 µM

## CSCCOC(=O)COc1ccc(/C=N/NC(=O)c2c(Cl)cnn2C)cc1
  IC50: 9.04 µM
  IC90: 22.6 µM

## C[C@@H]1CN([C@H](C)CO)C(=O)c2cc(NC(=O)Nc3ccc(C(F)(F)F)cc3)ccc2O[C@H]1CN(C)S(=O)(=O)c1cccs1
  IC50: 22.6 µM
  IC90: 25.9 µM

## O=C1/C(=C/Nc2ccc3c(c2)OCO3)CCc2ccccc21
  IC50: 72.8 µM
  IC90: > 100 µM

## COc1ccc(CN2CCN(C(c3ccc(F)cc3)c3ccc(F)cc3)CC2)c(OC)c1OC
  IC50: 23.3 µM
  IC90: 26.3 µM

## CCCn1c(=N)c(C(=O)NCc2ccc3c(c2)OCO3)cc2c(=O)n3cccc(C)c3nc21
  IC50: 19.8 µM
  IC90: 29 µM

## Clc1ccc(Nc2ccc(-n3ccnc3)nn2)cc1Cl
  IC50: 18.9 µM
  IC90: 25.3 µM

## CCN(CC)Cc1nc2c(c(=O)[nH]1)C(CC)(CC)Cc1ccccc1-2
  IC50: 4.46 µM
  IC90: 18.4 µM

## CCOC(=O)c1nn(-c2ccc(C)cc2)c2nc(Nc3ccccc3)cc(=O)n12
  IC50: 4.1 µM
  IC90: 12.7 µM

## O=C(CCS(=O)(=O)c1ccc(F)cc1)Nc1nc(-c2ccccn2)cs1
  IC50: 4.5 µM
  IC90: 17.1 µM

## CCC1C(c2ccccc2)N(C)C(c2ccccc2)CC1(O)c1ccccc1 (stereo not drawn)
  IC50: 23.2 µM
  IC90: 25.5 µM

## CN1CCN(Cn2cc(/C=C/C(=O)c3ccccc3)c3ccccc32)CC1
  IC50: 7.95 µM
  IC90: 26.3 µM

## c1ccc2c(C3=NNC(=NC4CCCCC4)SC3)c[nH]c2c1
  IC50: 42.7 µM
  IC90: 47.2 µM

## COC(=O)CSc1nnc(-c2sc3cc(OC)ccc3c2Cl)n1C
  IC50: 9.08 µM
  IC90: > 100 µM

## Cc1cc(C(=O)N[C@H](c2ccccc2)[C@@]2(C)C[C@@H]2[C@@H](C)C(=O)Nc2ccc3ccccc3c2)n(C)n1
  IC50: 24.4 µM
  IC90: 27.6 µM

## CCCn1nnc(NC(=O)COc2ccc(CC)cc2)n1
  IC50: 29.7 µM
  IC90: > 100 µM

## CCCNC(=S)Nc1ccc(Nc2ccccc2)cc1
  IC50: 31.7 µM
  IC90: 52 µM

## O=C1/C(=N\S(=O)(=O)c2cccs2)C([n+]2ccc(CCCc3ccccc3)cc2)=C([O-])c2ccccc21
  IC50: 18.2 µM
  IC90: 22.1 µM
